# Laboratory results as given in US20240287082A1, “NEW BENZODIAZEPINE DERIVATIVES AS GABA A GAMMA1 PAM” (Hoffmann-La Roche Inc., priority 2021, published 2024).
# Like-named read-outs stand apart in the source and are kept apart here.
# Tests used:
# [1] = biological target: human GABAA α2β2γ1 receptor (Homo sapiens (Human), UniProt P47869+Q8N1C3); test: Radioligand binding assay, competition for [3H]RO7239181, γ1-containing GABAA subtype α2β2γ1; settings: for γ2/γ1 Selectivity Ratio: Ki α1β3γ2 (nM)/Ki α2β2γ1 (nM); for LogSel: Log[Ki α1β3γ2 (nM)/Ki α2β2γ1 (nM)]
# [2] = biological target: human GABAA α1β3γ2 receptor (Homo sapiens (Human), UniProt P14867+P18507); test: Radioligand binding assay, competition for [3H]Flumazenil, γ2-containing GABAA subtype α1β3γ2
# [3] = biological target: h-GABA-A α2β2γ1 (Homo sapiens (Human), UniProt P47869+Q8N1C3); test: Two-electrode voltage clamp electrophysiology in Xenopus oocytes expressing GABAA receptors, modulation of GABA EC20 current; assay type: cell-based; settings: for Efficacy (GABA) %: % modulation of GABA EC20 = 100*(Fold increase−1), compound at 30-fold Ki α2β2γ1; for Fold increase h-GABA-A α2β2γ1 oocyte @ 30-fold Ki: Xenopus oocytes, GABA EC20, test compound at approx. 30-fold its Ki α2β2γ1
# [4] = read-out: Ki h-GABAA α2β2γ1, Table 2, membranes of HEK293F cells, [3H]RO7239181
# [5] = Table 2, membranes of HEK293F cells, [3H]RO7239181, read-out: Ki h-GABAA α2β2γ1
# [6] = membranes of HEK293F cells, [3H]RO7239181 20-30 nM, mean of two determinations, read-out: Ki h-GABAA α2β2γ1
# [7] = HEK293F cell membranes, [3H]Flumazenil 1 nM, mean of two determinations, read-out: Ki h-GABAA α1β3γ2
SMILES,Ki [1] [nM],γ2/γ1 Selectivity Ratio [1],LogSel [1],"Ki [1, 4] [nM]",Ki [2] [nM],Efficacy (GABA) % [3] [%],Fold increase h-GABA-A α2β2γ1 oocyte @ 30-fold Ki [3],"Ki [1, 5] [nM]","Ki [1, 6] [nM]","Ki [2, 7] [nM]"
"C[C@@H]1N=C(c2c(F)cccc2F)c2c(ccc(C(F)(F)F)c2Cl)-n2ccc(=O)nc21 [Example 10, (5S)-8-chloro-7-(2,6-difluorophenyl)-5-methyl-9-(trifluoromethyl)-5H-pyrimido[1,2-a][1,4]benzodiazepin-3-one]",54.6,112.1,2.05,54.6,6120,164,2.64,,,
"C[C@@H]1N=C(c2c(F)cccc2F)c2c(ccc(C(F)(F)F)c2Cl)-n2cc(C(=O)NC3CC3)c(=O)nc21 [Example 28, (5S)-8-chloro-N-cyclopropyl-7-(2,6-difluorophenyl)-5-methyl-3-oxo-9-(trifluoromethyl)-5H-pyrimido[1,2-a][1,4]benzodiazepine-2-carboxamide]",,338.4,2.53,,,35,1.35,33,33,11200
"O=c1ccn2c(n1)CN=C(c1ccccc1F)c1c-2ccc(Cl)c1Cl [Example 1, 8,9-dichloro-7-(2-fluorophenyl)-5H-pyrimido[1,2-a][1,4]benzodiazepin-3-one]",57.9,12.4,1.09,57.9,716,92,1.92,,,
"CCOCCc1cn2c(nc1=O)[C@H](C)N=C(c1c(F)cccc1F)c1c-2ccc(C(F)(F)F)c1Cl [Example 20, (5S)-8-chloro-7-(2,6-difluorophenyl)-2-(2-ethoxyethyl)-5-methyl-9-(trifluoromethyl)-5H-pyrimido[1,2-a][1,4]benzodiazepin-3-one]",,88.1,1.95,,,113,2.13,101,101,8880
"Cc1cn2c(nc1=O)[C@H](C)N=C(c1c(F)cccc1F)c1c-2ccc(C(F)(F)F)c1Cl [Example 9, (5S)-8-chloro-7-(2,6-difluorophenyl)-2,5-dimethyl-9-(trifluoromethyl)-5H-pyrimido[1,2-a][1,4]benzodiazepin-3-one]",28.4,209.4,2.32,28.4,5950,99,1.99,,,
"C[C@@H]1N=C(c2c(F)cccc2F)c2c(ccc(Br)c2Cl)-n2ccc(=O)nc21 [Example 13, (5S)-9-bromo-8-chloro-7-(2,6-difluorophenyl)-5-methyl-5H-pyrimido[1,2-a][1,4]benzodiazepin-3-one]",11.4,53.3,1.73,11.4,607,70,1.7,,,
"CCO/C=C/c1cn2c(nc1=O)[C@H](C)N=C(c1c(F)cccc1F)c1c-2ccc(C(F)(F)F)c1Cl [Example 18, (5S)-8-chloro-7-(2,6-difluorophenyl)-2-[(E)-2-ethoxyvinyl]-5-methyl-9-(trifluoromethyl)-5H-pyrimido[1,2-a][1,4]benzodiazepin-3-one]",,104.6,2.02,,,89,1.89,60.6,60.6,6340
